Key:
[1] = Pharmacokinetic test in beagle dogs; assay type: in vivo
Description: 6.1 Experimental animals: male beagle dogs, about 8-11 kg, 6 beagle dogs/compound, purchased from Beijing Marshall Biotechnology Co., Ltd.
6.2 Experimental method: On the day of the experiment, 18 beagle dogs were randomly grouped according to their body weights. The animals were fasted with water available for 12-14 h one day before administration and fed 4 h after administration. Administration was carried out according to Table 8.
Before and after administration, 1 ml of blood was taken from the jugular vein or limb vein and placed in an EDTAK2 centrifuge tube. Centrifugation was carried out at 5000 rpm at 4° C. for 10 min, and plasma was collected. The blood collection time points for the intravenous group and intragastric group were both 0 min, 5 min, 15 min, 30 min, 1 h, 2 h, 4 h, 6 h, 8 h, 10 h, 12 h, 24 h, 48 h, and 72 h. Before analysis and detection, all the samples were stored at −80° C., and the samples were subjected to quantitative analysis using LC-MS/MS.

PDE4D2 = molecular target: T1, PDE4D2 (Homo sapiens, UniProt Q08499); assay: Effect of compounds on PDE4D2 activity (fluorescence polarization kit); assay type: biochemical; conditions: class symbols
T1 construct: purchased BPS Bioscience 60345
T1 sequence (Q08499 303-809): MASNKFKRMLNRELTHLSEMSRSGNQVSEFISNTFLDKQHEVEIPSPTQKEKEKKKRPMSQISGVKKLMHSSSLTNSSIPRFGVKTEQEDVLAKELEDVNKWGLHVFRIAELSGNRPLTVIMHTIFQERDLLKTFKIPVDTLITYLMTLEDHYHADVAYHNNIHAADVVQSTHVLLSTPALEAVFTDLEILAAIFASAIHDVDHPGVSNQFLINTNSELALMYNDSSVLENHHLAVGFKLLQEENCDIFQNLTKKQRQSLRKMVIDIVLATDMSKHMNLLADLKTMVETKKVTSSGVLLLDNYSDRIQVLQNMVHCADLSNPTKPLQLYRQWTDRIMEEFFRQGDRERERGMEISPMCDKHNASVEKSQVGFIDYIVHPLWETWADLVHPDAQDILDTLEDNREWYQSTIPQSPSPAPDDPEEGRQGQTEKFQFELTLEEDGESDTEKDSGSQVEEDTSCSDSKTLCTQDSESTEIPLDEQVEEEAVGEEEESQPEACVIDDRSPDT
Summary of the method: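 PDE4D2 (0.068 ng/well final) pre-incubated 15 min at room temperature with serially diluted compound, then […] FAM-cAMP (final) added for 30 min. Binding Agent added for 1 h before fluorescence polarization readout (Ex 485/Em 520 nm, mP). Inhibition derived against positive and negative control wells; IC50 from concentration-inhibition data.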

[2] = Pharmacokinetic test in monkeys; assay type: in vivo, cynomolgus monkeys
Description: Experimental animals: Male cynomolgus monkeys, 3-5 kg, 3-6 years old, 6 monkeys/compound. Purchased from Suzhou Xishan Biotechnology Inc.
Experimental method: On the day of the experiment, 12 monkeys were randomly grouped according to their body weights. The animals were fasted with water available for 14-18 h one day before administration and fed 4 h after administration.
Before and after administration, 1.0 mL of blood sample was taken from the limb vein and placed in an EDTAK2 centrifuge tube. Centrifugation was carried out at 5000 rpm at 4° C. for 10 min, and plasma was collected. The blood collection time points for the intravenous group were 0 min, 5 min, 15 min, 30 min, 1 h, 2 h, 4 h, 6 h, 8 h, 10 h, 12 h, and 24 h. Before analysis and detection, all the samples were stored at −80° C., and the samples were subjected to quantitative analysis using LC-MS/MS.

[3] = Pharmacokinetic test in mice; assay type: in vivo, ICR mice
Description: 5.1 Experimental animals: Male ICR mice, 20-25 g, 6 mice/compound. Purchased from Chengdu Ddossy Experimental Animals Co., Ltd.
5.2 Experimental design: On the day of the experiment, 42 ICR mice were randomly grouped according to their body weights. The animals were fasted with water available for 12-14 h one day before administration and fed 4 h after administration.
Before and after administration, 0.06 mL of blood was taken from the orbit under isoflurane anesthesia and placed in an EDTAK2 centrifuge tube for centrifugation at 5000 rpm at 4-C for 10 min, followed by plasma collection. The blood collection time points for the intravenous group and intragastric group were both 0 m, 5 mi, 15 mi, 30 mi, 1 h, 2 h, 4 h, 6 h, 8 h, and 24 h. Before analysis and detection, all the samples were stored at −80° C., and the samples were subjected to quantitative analysis using LC-MS/MS.

[4] = male, dog, iv, plasma, i.v. (1 mg/kg)
[5] = male, dog, po, plasma, i.g. (5 mg/kg)
[6] = male, cynomolgus monkey, iv, plasma, i.v. (1 mg/kg)
[7] = male, ICR, mouse, iv, plasma, i.v. (5 mg/kg)
[8] = male, ICR, mouse, po, plasma, i.g. (10 mg/kg)

F ([1]; i.g. (5 mg/kg)) | AUC(0-t) [1, 4] | clearance [1, 4] | half-life [1, 4] | Vd ([1]; male, dog, iv, plasma, i.v. (1 mg/kg), read-out: Vdss) | AUC(0-t) [1, 5] | half-life [1, 5] | IC50 (PDE4D2) | F ([2]; i.g. (3 mg/kg)) | AUC(0-t) [2, 6] | clearance [2, 6] | Vd ([2]; male, cynomolgus monkey, iv, plasma, i.v. (1 mg/kg), read-out: Vdss) | AUC(0-t) ([2]; male, cynomolgus monkey, po, plasma, i.g. (3 mg/kg)) | F ([3]; i.g. (10 mg/kg)) | AUC(0-t) [3, 7] | clearance [3, 7] | half-life [3, 7] | Vd ([3]; male, ICR, mouse, iv, plasma, i.v. (5 mg/kg), read-out: Vdss) | AUC(0-t) [3, 8] | half-life [3, 8] | SMILES
≥98% | 7070 ± 3250 ng·h/mL | 2.69 ± 1.7 mL/min/kg | 5.85 ± 0.63 h | 0.957 ± 0.37 L/kg | 26100 ± 11900 ng·h/mL | 7.38 ± 1.2 h | < 10 nM | 30.9 ± 13% | 8550 ± 664 ng·h/mL | 1.95 ± 0.15 mL/min/kg | 0.888 ± 0.16 L/kg | 7930 ± 3240 ng·h/mL |  |  |  |  |  |  |  | [O-][S@+]1CCc2nc(N3C[C@H]4CN(c5ccc6c(c5)CC6)C[C@H]4C3)nc(NC3(CO)CCC3)c21 [Compound 31]
 |  |  |  |  |  |  | < 10 nM |  |  |  |  |  | ≥98% | 6000 ± 1090 ng·h/mL | 7.03 ± 1.1 mL/min/kg | 3.34 ± 0.3 h | 1.3 ± 0.086 L/kg | 26900 ± 3910 ng·h/mL | 4.3 ± 0.69 h | C#Cc1cnc(C2=CCN(c3nc4c(c(NC5(CO)CCC5)n3)[S+]([O-])CC4)CC2)nc1 (stereo not drawn) [Compound 37]
